From patent US20230286973A1, “PROTEIN SECRETION INHIBITORS” (KEZAR LIFE SCIENCES, priority 2020, published 2023)
pEC50, pIC50: −log10 of the molar value. Read-outs that look alike come from different tables or passages of the source.

Columns and labels:
[1] = tested on: PD1-ss+10aa/Gaussia Luciferase; assay: Dox-Induced PD1-ss-Gluc Assay; format: cell-based; details: 24 hr Dox induction, 293FRT/TO cells, read-out: 24 hr Dox Inducible PD1ssGluc 293FRT/TO: Mean IC50
Procedure, shortened: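 Flp-In 293 T-REx, stable line; Tet-regulated PD1-ss+10aa fused to Gaussia luciferase; plated day prior; cpd + doxycycline in DMSO/media; 37 °C, 5% CO2.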

[2] = tested on: TNFα-FL/Gaussia Luciferase; assay: Dox Induced TNFα-FL-Gluc Assay; format: cell-based; details: for pIC50: 24 hr Dox induction, 293FRT/TO cells, read-out: 24 hr Dox Inducible TNFaFLGluc 293FRT/TO: Mean IC50; for 24 hr Dox Inducible TNFaFLGluc 293FRT/TO: TNF/PD1: ratio of TNFaFLGluc IC50 to PD1ssGluc IC50
Procedure, shortened: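 Cells are seeded one day ahead, then treated with compound plus doxycycline at 37 °C, 5% CO2. The stable Flp-In 293 T-REx line expresses full-length TNFα (amino acids 1-233) with Gaussia luciferase fused to its 3′ end, inducibly via T-REx.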

[3] = tested on: HER3-ss+4aa/Gaussia Luciferase; assay: Dox-Induced Her3-ss-Gluc Assay; format: cell-based; details: 24 hr Dox induction, 293FRT/TO cells, read-out: 24 hr Dox Inducible Her3(ss + 4)Gluc 293FRT/TO: Mean IC50
Procedure, shortened: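 Expression of a Gaussia luciferase reporter carrying the HER3 signal sequence plus 4 amino acids is induced by doxycycline in stably transfected Flp-In 293 T-REx cells. Compounds are added with doxycycline at 37° C., 5% CO2. Undefined stereocentres denote stereoisomer mixtures.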

[4] = tested on: IL-2-FL/Gaussia Luciferase; assay: Dox Induced IL2-FL-Gluc Assay; format: cell-based; details: for pIC50: 24 hr Dox induction, 293FRT/TO cells, read-out: 24 hr Dox Inducible IL2FLGluc 293FRT/TO: Mean IC50; for 24 hr Dox Inducible IL2FLGluc 293FRT/TO: IL2/PD1: ratio of IL2FLGluc IC50 to PD1ssGluc IC50
Procedure, shortened: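 Reporter is Gaussia luciferase fused to the 3′ end of full-length IL-2 (aa 1-153), expressed from a doxycycline-inducible T-REx construct in stably selected Flp-In 293 cells. Compounds were co-added with doxycycline and incubated at 37° C, 5% CO2.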

[5] = tested on: multiple myeloma cell line NCI-H929; assay: H929 Cell Viability Assay; format: cell-based, human; details: Homo sapiens, NCI-H929, 48 h, NCI-H929 cells, Celltiter-Glo
Procedure, shortened: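 Plate the myeloma cells in RPMI 1640 with 10% FBS, add serially diluted compound, incubate for 48 hours at 37° C, then add CellTiter-Glo and read luciferase signal.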

[6] = tested on: multiple myeloma cell line U266B1; assay: U266 Cell Viability Assay; format: cell-based, human; details: Homo sapiens, U-266, 48 h, U266B1 cells, Celltiter-Glo
Procedure, shortened: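 48 h treatment, 37° C./5% CO2, RPMI 1640 + 10% FBS; viability by CellTiter-Glo luminescence.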

[7] = Liver Microsome Stability Assay (rat); details: rat liver microsomes, with NADPH, 1.0 uM compound
Procedure: (§1) Stability of a compound was assessed in the presence of liver microsomes from various sources—mouse, rat, monkey and human liver microsomes. 1.0 uM compound, 0.4% DMSO in 0.1 M Potassium Phosphate with 1.0 mg/mL liver microsomes, were incubated at 37° C. with or without 1 mM NADPH. The samples were quenched at 0, and 30 minutes.

[8] = Liver Microsome Stability Assay (mouse); details: mouse liver microsomes, with NADPH, 1.0 uM compound
Procedure: as §1

[9] = Liver Microsome Stability Assay (human); details: human liver microsomes, with NADPH, 1.0 uM compound
Procedure: as §1

[10] = Liver Microsome Stability Assay (monkey); details: monkey liver microsomes, with NADPH, 1.0 uM compound
Procedure: as §1

[11] = '<=>' given where both are I.A.

pIC50 ([1]; mean)	pIC50 ([2]; mean)	pIC50 ([3]; mean)	pIC50 ([4]; mean)	pEC50 [5]	pEC50 [6]	Liver Microsome Stability (Multiple Species): Rat - % Remaining after 30 min w/NADPH [7]	Liver Microsome Stability (Multiple Species): Mouse - % Remaining after 30 min w/NADPH [8]	Liver Microsome Stability (Multiple Species): Human - % Remaining after 30 min w/NADPH [9]	Liver Microsome Stability (Multiple Species): Monkey - % Remaining after 30 min w/NADPH [10]	pIC50 [1]	pIC50 [2]	pIC50 [3]	pIC50 [4]	SMILES	24 hr Dox Inducible TNFaFLGluc 293FRT/TO: TNF/PD1 [2, 11]	24 hr Dox Inducible IL2FLGluc 293FRT/TO: IL2/PD1 [4, 11]	24 hr Dox Inducible TNFaFLGluc 293FRT/TO: TNF/PD1 [2]	24 hr Dox Inducible IL2FLGluc 293FRT/TO: IL2/PD1 [4]
7.27	6.08	6.94	6.74	5.23	< 4.60	10.1%	1.95%	5.08%	0.67%					CC(c1ccncc1)n1cccc1C(=O)Nc1nc([C@H]2CCCN2c2ccccc2)cs1 (stereo partly drawn) [Compound E13, N-(4-((R)-1-phenylpyrrolidin-2-yl)thiazol-2-yl)-1-(1-(pyridin-4-yl)ethyl)-1H-pyrrole-2-carboxamide]	15.6	3.4		
5.10	< 4.60	4.87	5.11	< 4.60	< 4.60	0.45%	2.74%	0.93%	0.12%					O=C(Nc1nc([C@H]2CCCN2c2ccncc2)cs1)c1cccn1Cc1ccncc1 [Compound E48, (R)-N-(4-(1-(pyridin-4-yl)pyrrolidin-2-yl)thiazol-2-yl)-1-(pyridin-4-ylmethyl)-1H-pyrrole-2-carboxamide]	>3.17	0.99		
				4.79	< 4.62	34.4%	17.3%	17.5%	2.84%	5.54	4.78	< 4.60	< 4.60	CC(C)n1cncc1/C=C/c1csc(NC(=O)c2cccn2Cc2ccncc2)n1 [Compound B57, (E)-N-(4-(2-(1-isopropyl-1H-imidazol-5-yl)vinyl)thiazol-2-yl)-1-(pyridin-4-ylmethyl)-1H-pyrrole-2-carboxamide]			5.83	>8.7
				6.73	< 4.60	0.32%	1.57%	1.38%	0.22%	8.52	7.09	8.10	7.89	COC(=O)Nc1ccc(N2CCC[C@@H]2c2csc(NC(=O)c3cccn3Cc3ccnc(F)c3)n2)nc1 [Compound A175, methyl (R)-(6-(2-(2-(1-((2-fluoropyridin-4-yl)methyl)-1H-pyrrole-2-carboxamido)thiazol-4-yl)pyrrolidin-1-yl)pyridin-3-yl)carbamate]			26.7	4.3
				6.80	< 4.60	16%	17.3%	36.8%	28.5%	8.45	7.14	8.36	8.18	O=C(Nc1ccc(N2CCC[C@@H]2c2csc(NC(=O)c3cccn3Cc3ccnc(F)c3)n2)cc1)O[C@@H]1CCOC1 [Compound A171, (R)-tetrahydrofuran-3-yl (4-((R)-2-(2-(1-((2-fluoropyridin-4-yl)methyl)-1H-pyrrole-2-carboxamido)thiazol-4-yl)pyrrolidin-1-yl)phenyl)carbamate]			20.1	1.8
6.83	5.32	6.41	6.03	5.06	4.74	1.2%	0.08%	0.41%	0.7%					COc1ccc(O[C@H]2CC[C@@H](c3csc(NC(=O)c4cccn4Cc4ccncc4)n3)CC2)nc1 [Compound E35, N-(4-((1s,4s)-4-((5-methoxypyridin-2-yl)oxy)cyclohexyl)thiazol-2-yl)-1-(pyridin-4-ylmethyl)-1H-pyrrole-2-carboxamide]	32.6	6.3		
				5.01	5.09	10.7%	29.4%	1.94%	0.94%	6.11	< 4.60	5.79	5.65	CNCc1ccc(N2CCC[C@@H]2c2csc(NC(=O)c3cccn3Cc3ccncc3)n2)cc1 [Compound A49, (R)-N-(4-(1-(4-((methylamino)methyl)phenyl)pyrrolidin-2-yl)thiazol-2-yl)-1-(pyridin-4-ylmethyl)-1H-pyrrole-2-carboxamide]			>32.1	2.8
				4.68	< 4.60	13.6%	8.33%	0.79%	0.19%	6.52	< 4.60	5.48	5.12	CC(C)c1cc(/C=C/c2csc(NC(=O)c3cccn3Cc3ccnc(F)c3)n2)nn1C [Compound B96, (E)-1-((2-fluoropyridin-4-yl)methyl)-N-(4-(2-(5-isopropyl-1-methyl-1H-pyrazol-3-yl)vinyl)thiazol-2-yl)-1H-pyrrole-2-carboxamide]			>82.3	25
				< 4.60	< 4.60	2.29%	3.15%	15.6%	15.2%	6.20	< 4.60	< 4.60	< 4.60	Cc1cc(/C=C/c2csc(NC(=O)c3cccn3Cc3ccnc(F)c3)n2)no1 [Compound B88, (E)-1-((2-fluoropyridin-4-yl)methyl)-N-(4-(2-(5-methylisoxazol-3-yl)vinyl)thiazol-2-yl)-1H-pyrrole-2-carboxamide]			>40.0	>40
